Laboratory results reported in patent US20130012506A1 (priority 2010, published 2013).

Columns and labels:
[1] = test system: M. tuberculosis H37Rv; type: cell-based, Mycobacterium tuberculosis
[2] = test system: M. tuberculosis clinical isolates; type: cell-based, Mycobacterium tuberculosis; settings: multi-drug-resistant and extensive-drug-resistant isolates

## NNC(=O)c1ccncc1 [INH, isoniazid]
[1]
  Frequency of resistance: 2.9×10^−6

## Cc1cccn2c(=O)c(C=O)c(Nc3cccc(Cl)c3)nc12 [compound 133, 2-(3-Chlorophenylamino)-9-methyl-4-oxo-4H-pyrido[1,2-a]pyrimidine-3-carbaldehyde]
[2]
  MIC values for MDR-TB and XDR-TB isolates strains: within the micromolar range

## O=c1c(CO)c(Nc2cccc(Cl)c2)nc2c(F)cccn12 [compound 264, 2-(3-Chlorophenylamino)-9-fluoro-3-(hydroxymethyl)-4H-pyrido[1,2-a]pyrimidin-4-one]
[1]
  spontaneous mutational rate: 7×10^−7
